Like-named read-outs stand apart in the source and are kept apart here.
Legend:
[1] = tested on: washed human platelets; experiment: Collagen-induced platelet aggregation, light transmission aggregometry (Born method); format: cell-based; details: for IC50: Homo sapiens, collagen-induced platelet aggregation, compounds without IC50 determination estimated from percent inhibition at 20 µM, read-out: IC50 (SAR table); for IC50 / activity at 20 µM: Platelet; for activity at 20 µM: compound 20 µM, washed human platelets, means ± SDs of three experiments, 100% = agonist alone
Description: Light transmission aggregometry, i.e., the Born method, was used to determine in vitro antiplatelet aggregation activity using collagen as the agonist for platelet aggregation. Collagen was selected as the agonist, since it is the most thrombogenic component of the subendothelial layer. Collagen also serves as a substrate for platelet adhesion and as an inducer of platelet activation.
All experiments using human blood from healthy volunteers were performed according to the protocols approved by the Institutional Review Board at Cincinnati Children’s Hospital Medical Center, Cincinnati, Ohio. Each volunteer was required to sign an informed consent form approved by the IRB. Procedures for drawing human blood, isolating platelet-rich plasma (PRP), and preparing washed platelet suspensions were the same as those previously reported. […] PRP was obtained by means of the centrifugation of blood at 1400 rpm for 15 min at room temperature. PRP was centrifuged at 4000 rpm for 10 min at room temperature, and the platelet pellet was resuspended in HEPES Tyrode’s solution (pH 7.4) without calcium. Platelets were counted using Hemavet 950FS (Drew Scientific, Oxford, CT, USA), and the count was adjusted to 2.5 × 10^8/mL for aggregation studies.
The in vitro antiplatelet activity of the compounds was assayed on washed human platelets using light transmission aggregometry. Platelet aggregation was performed using a 4-channel Lumi-aggregometer (Chronolog, PA, USA) at 37 °C and stirring speed of 900 rpm. A volume of 250 µL of washed human platelets (2.5 × 10^8/mL) was pre-warmed to 37 °C along with the compounds or DMSO (0.1%) for 2 min before the addition of agonists such as collagen, AA, U46619 (a stable synthetic analog of thromboxane A2), ADP, and thrombin. For ATP secretion, platelets were pre-incubated with a luciferin/luciferase kit (Chrono-lume®) for 30 s at 37 °C before the addition of the agonist. The reactions were allowed to proceed for at least 4 min, and the results of platelet aggregation and ATP secretion were determined using Aggrolink software. Platelet aggregation was expressed as the maximum change in the light transmission, where the 100% value corresponded to treatment with the agonist alone. Compounds were evaluated in triplicate at nine compound concentrations ranging from 50 µM to 1 µM.

[2] = tested on: washed human platelets; experiment: Wash-out reversibility of inhibition of collagen-induced platelet aggregation; format: cell-based
Description: The reversible inhibition of Rhosin in collagen-induced platelet aggregation was assessed with similar wash-out experiments, and this reversible nature of Rhosin makes it a valuable antiplatelet drug candidate (Supporting Information Figure S4A,B). After confirming the structures of the above six active analogs, similar wash-out experiments were performed to compare the reversible function of the active analogs with Rhosin reversibility.

[3] = tested on: RhoA; experiment: RhoA-GTP formation, GST-Rhotekin effector pull-down assay in collagen-stimulated platelets; format: cell-based, human; details: 20 µM, 2 min pre-incubation; collagen 1 µg/mL for 4 min
Description: Next, the ability of the six compounds to suppress RhoA activity in platelets was assessed by subjecting them to a GST (Glutathione-S-transferase)-Rhotekin effector pull-down assay. The compounds were incubated with washed human platelets for 2 min before being stimulated with 1 µg/mL collagen. The analogs inhibited the activation of RhoA at the 20 µM concentration (Figure 2A,B). […] After confirming that these analogs could prevent RhoA activation and the phosphorylation of the MLC, their ability to disrupt complex-formation between RhoA and LARG was tested. […] These findings indicate that the active analogs inhibit RhoA activation by disrupting the binding between RhoA and its GEF.
(A,B) Washed human platelets were incubated with collagen (1 µg/mL) for 4 min, and the levels of RhoA-GTP formation were quantified with a GST-Rhotekin effector pull-down assay. The platelets were pre-incubated with 20 µM UC-177618, UC-177619, UC-177628, UC-177629, […], or […] for 2 min before being stimulated with collagen. The addition of ice-cold lysis buffer terminated the reaction. […] Relative amounts of the GTP-bound form of RhoA were quantified with densitometry measurements of total RhoA (T-RhoA) and normalized to untreated platelets. (C,D) The addition of 20 µM of active Rhosin-related compounds to washed human platelets 2 min before stimulation with collagen blocked the phosphorylation of the myosin light chain (p-MLC). The reactions were terminated after 4 min by adding 4x Laemmli sample buffer. The samples were processed for Western blotting and probed for MLC and p-MLC, and phosphorylation was quantified by measuring the densitometry of total MLC (T-MLC). The differences between DMSO- and Rhosin-related compounds were analyzed with t-test, and the results are shown as means ± SDs of three independent experiments. (* p < 0.05, ** p < 0.01, *** p < 0.001, and **** p < 0.0001).
The relative levels of RhoA-GTP in washed human platelets were quantified with effector domains GST-Rhotekin pull-down assays as previously reported. A volume of 250 µL of washed human platelets (2.5 × 10^8/mL) was pre-warmed to 37 °C along with the compounds or DMSO (0.1%) for 2 min before being stimulated with collagen (1 µg/mL). The reactions were terminated 4 min after collagen stimulation by adding ice-cold lysis buffer (20 mM Tris·HCl (pH 7.6), 100 mM NaCl, 1% Triton X-100, 0.2% Sodium Deoxycholate, 10 mM MgCl2, 1 mM dithiothreitol, 1x protease inhibitor cocktail, and 1x phosphatase inhibitor cocktail). The supernatants were collected and subjected to the GST-Rhotekin pull-down assay. The total cell lysates were also blotted in parallel. GTP-bound RhoA was quantitatively detected with Western blotting using an anti-RhoA antibody. The relative amounts of RhoA were quantified with densitometry measurements and normalized to the untreated platelets.

[4] = biological target: T1, RhoA-LARG interaction (Homo sapiens, UniProt P61586); experiment: In vitro complex-formation assay of RhoA with LARG DH-PH domain; format: binding; details: 20 µM; pull-down assay conditions, 4 °C, 1 h
T1 construct: 100 ng of purified full-length RhoA
Description: (A) A complex-formation assay tested the inhibitory effects of 20 µM UC-177618 and UC-177619 on RhoA interaction with the LARG DH-PH domain. […] After incubating the compound-RhoA-LARG mixture at 4 °C for 1 h, the beads associated with RhoA were detected with anti-RhoA Western blotting. (B,C) Top view of the predicted structural contacts of UC-177618 and UC-177619 in the binding pocket around the Trp58 residue of RhoA.
(A) A complex-formation assay tested the inhibitory effects of R-G04 and S-G04 on RhoA interaction with the LARG DH-PH domain. MBP-(His)6-tagged LARG (100 ng) was immobilized on Amylose beads. Binding buffer containing full-length RhoA (100 ng) was pre-incubated with different concentrations of R-G04 (25 µM or 50 µM), and S-G04 (5 µM or 10 µM) was added to the beads. After incubating the compound-RhoA-LARG mixture at 4 °C for 1 h, the beads associated with RhoA were detected with anti-RhoA Western blotting. (B) Top view of the predicted structural contacts of R-G04 and S-G04 in the binding pocket around the Trp58 residue of RhoA.
In total, 100 ng of purified MBP (Maltose-binding protein)-(His)6-tagged LARG DH-PH was immobilized on 20 µL of suspended amylose beads (No. E8021S; New England Biolabs Inc., Ipswich, MA, USA) by incubating them in an orbital shaker at 4 °C for 30 min in binding buffer (20 mM Tris·HCl (pH 7.6), 100 mM NaCl, 0.01% Triton X-100, 5mM EDTA, and 5 mM MgCl2). The compounds were added to the binding buffer containing 100 ng of purified full-length RhoA and pre-incubated at 4 °C for 30 min under constant agitation. The Amylose beads bound to LARG were washed thrice with binding buffer to get rid of unbound LARG, and the pre-incubated compound-RhoA mixture was added to the beads. This LARG-compound-RhoA mixture was incubated in the orbital shaker at 4 °C for 1 h. The beads were washed three times, and the amount of RhoA protein co-precipitated with the MBP-fusion-bound beads was detected with anti-RhoA Western blotting.

[5] = read-out: % Platelet Aggregation, Collagen (1 µg/mL)
[6] = read-out: % Platelet Aggregation, Collagen (5 µg/mL)

T1 sequence (P61586 whole entry, the tested form may be a part): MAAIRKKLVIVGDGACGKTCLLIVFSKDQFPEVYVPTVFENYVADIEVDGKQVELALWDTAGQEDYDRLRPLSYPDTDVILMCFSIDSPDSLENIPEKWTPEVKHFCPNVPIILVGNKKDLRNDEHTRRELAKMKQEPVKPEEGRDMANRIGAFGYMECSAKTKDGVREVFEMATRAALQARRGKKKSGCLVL

Row | IC50 [1] [µM] | LARG binding to RhoA [4] | Compound | activity at 20 µM [1, 5] [%] | activity at 20 µM [1, 6] [%] | reversibility of inhibitory effect after wash-out [2] | RhoA-GTP formation [3] | activity in collagen-induced platelet aggregation (SAR statement) ([1]; relative to the quinoline analogs)
1 | 1.5 | inhibit RhoA-LARG interaction | O=C(NNc1ccnc2c(C(F)(F)F)cccc12)c1ccc(Cl)c(Cl)c1 [UC-177618] | 5 ± 1.7 | 10.2 ± 4.1 | entirely reversible | inhibited RhoA-GTP formation | 
2 | 0.82 | inhibit RhoA-LARG interaction | O=C(NNc1ccnc2cc(Cl)ccc12)c1ccc(Cl)c(Cl)c1 [UC-177619] | 9.3 ± 3.5 | 12 ± 2.1 | entirely reversible | inhibited RhoA-GTP formation | slightly better potency

— PMC9961652 (International Journal of Molecular Sciences, 2023)
